Structures can show the parent of a compound that is named as a salt.
Target: T1, Recombinant human IKKβ (residues 1-737) (Homo sapiens, UniProt O14920)
T1 construct: Recombinant human IKKβ (residues 1-737); GST (C); made in house
T1 sequence (O14920 1-737): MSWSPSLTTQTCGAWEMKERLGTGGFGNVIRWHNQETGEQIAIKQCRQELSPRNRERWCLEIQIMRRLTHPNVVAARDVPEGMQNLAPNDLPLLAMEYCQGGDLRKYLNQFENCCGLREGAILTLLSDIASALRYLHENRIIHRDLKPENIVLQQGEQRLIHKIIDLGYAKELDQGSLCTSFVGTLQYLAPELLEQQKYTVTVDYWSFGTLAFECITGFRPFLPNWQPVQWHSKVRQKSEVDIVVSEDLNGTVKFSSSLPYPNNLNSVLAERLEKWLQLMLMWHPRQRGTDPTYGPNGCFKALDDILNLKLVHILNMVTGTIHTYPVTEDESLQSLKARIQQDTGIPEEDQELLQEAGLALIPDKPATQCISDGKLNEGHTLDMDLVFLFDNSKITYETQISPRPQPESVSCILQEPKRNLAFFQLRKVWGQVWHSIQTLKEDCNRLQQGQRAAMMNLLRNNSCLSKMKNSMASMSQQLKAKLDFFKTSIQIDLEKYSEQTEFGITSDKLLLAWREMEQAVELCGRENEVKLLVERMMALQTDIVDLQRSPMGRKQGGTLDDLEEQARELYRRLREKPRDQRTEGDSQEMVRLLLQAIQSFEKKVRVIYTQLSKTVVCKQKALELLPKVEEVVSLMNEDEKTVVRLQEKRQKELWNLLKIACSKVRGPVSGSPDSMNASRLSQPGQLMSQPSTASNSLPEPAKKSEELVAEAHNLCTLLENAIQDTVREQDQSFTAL
Assay: IKK2 assay (TR-FRET)
Format: biochemical
Details: ATP 1 μM final, read-out: pIC50 against IKK2 (converted)
Description: Recombinant human IKKβ (residues 1-737) was expressed in baculovirus as a C-terminal GST-tagged fusion protein, and its activity was assessed using a time-resolved fluorescence resonance energy transfer (TR-FRET) assay. Briefly, IKK2 (0.5 nM-5 nM final) diluted in assay buffer (50 mM HEPES, 10 mM MgCl2, 1 mM CHAPS pH 7.4 with 1 mM DTT and 0.01% w/v BSA) was added to wells containing various concentrations of compound or DMSO vehicle (1.7% final). The reaction was initiated by the addition of GST-IB substrate (25 nM final)/ATP (1 μM final), in a total volume of 6 μl. The reaction was incubated for 15 minutes at room temperature, then terminated by the addition of 3 μl of detection reagent in buffer containing 50 mM EDTA (100 mM HEPES pH 7.4, 150 mM NaCl, 50 mM EDTA and 0.01% w/v BSA) containing antiphosphoserine-IB-32/36 monoclonal antibody 12C2 (Cell Signalling Technology, Beverly Mass., USA) labelled with W-1024 europium chelate (Wallac OY, Turku, Finland), and an APC-labelled anti-GST antibody (Prozyme, San Leandro, Calif., USA) was added and the reaction was further incubated for 60 minutes at room temperature. The degree of phosphorylation of GST-IB was measured using a BMG Rubystar plate reader (BMG Labtech, Aylesbury, UK) as a ratio of specific 665 nm energy transfer signal to reference europium 620 nm signal.

| IC50 | Compound |
| --- | --- |
| ≤ 10 µM | CCS(=O)(=O)N1CCC(c2c[nH]c3c(C(N)=O)cc(-c4ccc(NS(=O)(=O)C5CCCC5)cc4)cc23)CC1 [Example 387, 5-{4-[(cyclopentylsulfonyl)amino]phenyl}-3-[1-(ethylsulfonyl)-4-piperidinyl]-1H-indole-7-carboxamide trifluoroacetate] |
| ≤ 10 µM | CCS(=O)(=O)N1CCC(c2c[nH]c3c(C(N)=O)cc(-c4ccc(OC)c(CN5CCOCC5)c4)cc23)CC1 [Example 264, 3-[1-(ethylsulfonyl)-4-piperidinyl]-5-[4-(methyloxy)-3-(4-morpholinylmethyl)phenyl]-1H-indole-7-carboxamide trifluoroacetate] |
| > 10 µM | CCNCc1cc(CNCC)cc(-c2cc(C(N)=O)c3[nH]cc(C4CCN(S(=O)(=O)CC)CC4)c3c2)c1 [Example 277, 5-{3,5-bis[(ethylamino)methyl]phenyl}-3-[1-(ethylsulfonyl)-4-piperidinyl]-1H-indole-7-carboxamide trifluoroacetate] |
| ≤ 10 µM | CCC(CC)NCc1ccc(-c2cc(C(N)=O)c3[nH]cc(C4CCN(S(=O)(=O)CC)CC4)c3c2)cc1 [Example 142, 5-(4-{[(1-ethylpropyl)amino]methyl}phenyl)-3-[1-(ethylsulfonyl)-4-piperidinyl]-1H-indole-7-carboxamide] |
| ≤ 10 µM | CCS(=O)(=O)N1CCC(c2c[nH]c3c(C(N)=O)cc(-c4csc(CN5CCCCC5)n4)cc23)CC1 [Example 354, 3-[1-(ethylsulfonyl)-4-piperidinyl]-5-[2-(1-piperidinylmethyl)-1,3-thiazol-4-yl]-1H-indole-7-carboxamide] |
| ≤ 10 µM | CCS(=O)(=O)N1CCC(c2c[nH]c3c(C(N)=O)cc(-c4ccc(OC)c(CNCC(C)(C)C)c4)cc23)CC1 [Example 267, 5-[3-{[(2,2-dimethylpropyl)amino]methyl}-4-(methyloxy)phenyl]-3-[1-(ethylsulfonyl)-4-piperidinyl]-1H-indole-7-carboxamide trifluoroacetate] |
| ≤ 10 µM | CCS(=O)(=O)N1CCC(c2c[nH]c3c(C(N)=O)cc(-c4ccc(CNC[C@@H](C)O)cc4)cc23)CC1 [Example 152, 3-[1-(ethylsulfonyl)-4-piperidinyl]-5-[4-({[(2R)-2-hydroxypropyl]amino}methyl)phenyl]-1H-indole-7-carboxamide trifluoroacetate] |
| ≤ 10 µM | CCS(=O)(=O)N1CCC(c2c[nH]c3c(C(N)=O)cc(-c4cc(CNCC(C)(C)C)c(OC)c(OC)c4)cc23)CC1 [Example 55, 5-[3-{[(2,2-dimethylpropyl)amino]methyl}-4,5-bis(methyloxy)phenyl]-3-[1-(ethylsulfonyl)-4-piperidinyl]-1H-indole-7-carboxamide] |
| ≤ 10 µM | CCCNCc1cc(F)cc(-c2cc(C(N)=O)c3[nH]cc(C4CCN(S(=O)(=O)CC)CC4)c3c2)c1 [Example 284, 3-[1-(ethylsulfonyl)-4-piperidinyl]-5-{3-fluoro-5-[(propylamino)methyl]phenyl}-1H-indole-7-carboxamide trifluoroacetate] |
| ≤ 10 µM | CCS(=O)(=O)N1CCC(c2c[nH]c3c(C(N)=O)cc(-c4csc(CN5CCCC5COC)c4)cc23)CC1 (centres unmarked) [Example 405, 3-[1-(ethylsulfonyl)-4-piperidinyl]-5-[5-({2-[(methyloxy)methyl]-1-pyrrolidinyl}methyl)-3-thienyl]-1H-indole-7-carboxamide trifluoroacetate] |
| ≤ 10 µM | CCS(=O)(=O)N1CCC(c2c[nH]c3c(C(N)=O)cc(-c4cc(F)cc(CNC)c4)cc23)CC1 [Example 282, 3-[1-(ethylsulfonyl)-4-piperidinyl]-5-{3-fluoro-5-[(methylamino)methyl]phenyl}-1H-indole-7-carboxamide trifluoroacetate] |
| ≤ 10 µM | CCS(=O)(=O)N1CCC(c2c[nH]c3c(C(N)=O)cc(-c4cc(F)cc(CN5CCOCC5)c4)cc23)CC1 [Example 290, 3-[1-(ethylsulfonyl)-4-piperidinyl]-5-[3-fluoro-5-(4-morpholinylmethyl)phenyl]-1H-indole-7-carboxamide trifluoroacetate] |
| ≤ 10 µM | CCS(=O)(=O)N1CCC(c2c[nH]c3c(C(N)=O)cc(-c4ccc(CN[C@@H](C)CO)cc4)cc23)CC1 [Example 150, 3-[1-(ethylsulfonyl)-4-piperidinyl]-5-[4-({[(1S)-2-hydroxy-1-methylethyl]amino}methyl)phenyl]-1H-indole-7-carboxamide trifluoroacetate] |
| ≤ 10 µM | CCS(=O)(=O)N1CCC(c2c[nH]c3c(C(N)=O)cc(-c4cccc(C5CCCCN5)c4)cc23)CC1 (centres unmarked) [Example 279, 3-[1-(ethylsulfonyl)-4-piperidinyl]-5-[3-(2-piperidinyl)phenyl]-1H-indole-7-carboxamide trifluoroacetate] |
| ≤ 10 µM | CCS(=O)(=O)N1CCC(c2c[nH]c3c(C(N)=O)cc(-c4ccc5c(c4)CN(CC(C)(C)C)C5)cc23)CC1 [Example 426, 5-[2-(2,2-dimethylpropyl)-2,3-dihydro-1H-isoindol-5-yl]-3-[1-(ethylsulfonyl)-4-piperidinyl]-1H-indole-7-carboxamide] |
| ≤ 10 µM | CCS(=O)(=O)N1CCC(c2c[nH]c3c(C(N)=O)cc(-c4ccc5c(c4)CN(C(=O)NS(=O)(=O)c4ccccc4)C5)cc23)CC1 [Example 428, 3-[1-(ethylsulfonyl)-4-piperidinyl]-5-(2-{[(phenylsulfonyl)amino]carbonyl}-2,3-dihydro-1H-isoindol-5-yl)-1H-indole-7-carboxamide] |
| ≤ 10 µM | CCS(=O)(=O)N1CCC(c2c[nH]c3c(C(N)=O)cc(-c4cccc(C(C)N(C)C)c4)cc23)CC1 (centres unmarked) [Example 281, 5-{3-[1-(dimethylamino)ethyl]phenyl}-3-[1-(ethylsulfonyl)-4-piperidinyl]-1H-indole-7-carboxamide trifluoroacetate] |
| ≤ 10 µM | CCS(=O)(=O)N1CCC(c2c[nH]c3c(C(N)=O)cc(-c4csc(CN(C)C[C@H](C)O)c4)cc23)CC1 [Example 413, 3-[1-(ethylsulfonyl)-4-piperidinyl]-5-(5-{[[(2S)-2-hydroxypropyl](methyl)amino]methyl}-3-thienyl)-1H-indole-7-carboxamide trifluoroacetate] |
| ≤ 10 µM | CCS(=O)(=O)N1CCC(c2c[nH]c3c(C(N)=O)cc(-c4csc(CN5CCCC5CC(C)C)c4)cc23)CC1 (centres unmarked) [Example 93, 3-[1-(ethylsulfonyl)-4-piperidinyl]-5-(5-{[2-(2-methylpropyl)-1-pyrrolidinyl]methyl}-3-thienyl)-1H-indole-7-carboxamide trifluoroacetate] |
| ≤ 10 µM | CCS(=O)(=O)N1CCC(c2c[nH]c3c(C(N)=O)cc(-c4csc(CN(C)[C@@H]5CCC[C@H]5O)c4)cc23)CC1 [Example 411, 3-[1-(ethylsulfonyl)-4-piperidinyl]-5-(5-{[[(1R,2R)-2-hydroxycyclopentyl](methyl)amino]methyl}-3-thienyl)-1H-indole-7-carboxamide trifluoroacetate] |
| ≤ 10 µM | CCS(=O)(=O)N1CCC(c2c[nH]c3c(C(N)=O)cc(-c4cc(F)cc(CN(C)C)c4)cc23)CC1 [Example 288, 5-{3-[(dimethylamino)methyl]-5-fluorophenyl}-3-[1-(ethylsulfonyl)-4-piperidinyl]-1H-indole-7-carboxamide trifluoroacetate] |
| ≤ 10 µM | CCS(=O)(=O)N1CCC(c2c[nH]c3c(C(N)=O)cc(-c4ccc(NC(C)C)nc4)cc23)CC1 [Example 228, 3-[1-(ethylsulfonyl)-4-piperidinyl]-5-{6-[(1-methylethyl)amino]-3-pyridinyl}-1H-indole-7-carboxamide trifluoroacetate] |
| ≤ 10 µM | CCS(=O)(=O)N1CCC(c2c[nH]c3c(C(N)=O)cc(-c4ccc(CN5CCCC5)cc4)cc23)CC1 [Example 149, 3-[1-(ethylsulfonyl)-4-piperidinyl]-5-[4-(1-pyrrolidinylmethyl)phenyl]-1H-indole-7-carboxamide trifluoroacetate] |

From patent US8063071B2 (GlaxoSmithKline, LLC, priority 2007, dated 2011)
